Reference: PubChem BioAssay (NCI)
“And” between values parts separate entries of the source, which are not always exact repeats. Equal values may be shown once.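 These data come from cells grown in 96-well plates and exposed to compound for 48 hours at five concentrations. Abbreviation: GI50, concentration required for 50% inhibition of growth. TGI: total growth inhibition.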

Experiments:
Experiment in all cases: NCI tumour cell line growth inhibition, 48 h
[1] = system: ACHN renal
[2] = system: NCI-H226 lung
[3] = system: SN12C renal
[4] = system: NCI/ADR-RES ovarian
[5] = system: HCT-15 colon
[6] = system: U251 CNS
[7] = system: MCF7 breast
[8] = system: SF-539 CNS
[9] = system: SK-MEL-28 melanoma
[10] = system: HCT-116 colon

Row | SMILES | GI50 [1] | TGI [1] | GI50 [2] | TGI [2] | GI50 [3] | TGI [3] | GI50 [4] | TGI [4] | GI50 [5] | TGI [5] | GI50 [6] | TGI [6] | GI50 [7] | TGI [7] | GI50 [8] | TGI [8] | GI50 [9] | TGI [9] | GI50 [10] | TGI [10]
1 | COc1ccc(/C=C/C(=O)c2ccc(Nc3ncnc4ccccc34)cc2)cc1OC | 13.6 µM | > 100 µM | 3.53 µM | 31.9 µM | 10.9 µM | > 100 µM | 3.82 µM | > 100 µM | 8.63 µM | > 100 µM | 3.66 µM | > 100 µM | 2.43 µM | 14.3 µM | 7.73 µM | 48.8 µM | 13.7 µM | 93.5 µM | 0.547 µM | 16.8 µM
2 | N#Cc1nc(-c2cccc(Br)c2)cc(-c2ccc(Nc3nc(N4CCCCC4)nc(N4CCCCC4)n3)cc2)c1N | 1.72 µM | 3.3 µM | 1.85 µM | 3.94 µM | 2.82 µM | > 100 µM | 3.33 µM | > 100 µM | 1.72 µM | 5.53 µM | 1.72 µM | 3.38 µM | 1.03 µM | 54.4 µM | 1.74 µM | 3.14 µM | 1.83 µM | 3.89 µM | 1.55 µM | 3.19 µM
3 | O=C(O)C(/C=C/c1ccco1)=N\Nc1nc(-c2ccc(Cl)cc2)cs1 | 14.6 µM | > 50 µM | 9.41 µM | 25.4 µM | 13.2 µM | > 50 µM | 12.4 µM | > 50 µM | 9.27 µM | > 50 µM | 4.59 µM | > 50 µM | 10.2 µM | 40.6 µM | 14.6 µM | > 50 µM | 25.7 µM | > 50 µM | 11.6 µM | > 50 µM
4 | Nc1nc(-n2cccn2)nc(-n2cccn2)c1Br | > 100 µM | > 100 µM | > 100 µM | > 100 µM | > 100 µM | > 100 µM | > 100 µM | > 100 µM | > 100 µM | > 100 µM | > 100 µM | > 100 µM | > 100 µM | > 100 µM | > 100 µM | > 100 µM | > 100 µM | > 100 µM | > 100 µM | > 100 µM
5 | COc1ccc(NC2=C(Sc3nc(C)cc(C)n3)C(=O)N(Cc3ccccc3)C2=O)cc1Cl | > 160 µM | > 160 µM | 39.5 µM | > 160 µM |  |  | > 160 µM | > 160 µM | > 160 µM | > 160 µM | 55 µM | > 160 µM | 56.8 µM | > 160 µM | > 160 µM | > 160 µM | > 160 µM | > 160 µM | 39 µM | > 160 µM
6 | CC[C@@]1(O)C(=O)NCc2c1cc1n(c2=O)Cc2cc3cc4c(cc3nc2-1)OCO4 | 0.398 µM | > 13.2 µM | 2 µM | > 85.1 µM | 0.328 µM | 11.7 µM | 0.236 µM | 1.56 µM | 8.58 µM | > 100 µM | 0.408 µM | 12.9 µM | 0.217 µM | > 100 µM | 0.374 µM | 4.57 µM | 45.1 µM | > 100 µM | 0.883 µM | 46 µM
7 | C[C@]12CC[C@H]3[C@@H](CCC4=CC(=O)CC[C@@H]43)[C@@H]1CC[C@@H]2OC1(O)C(=O)c2ccccc2C1=O |  | 79.4 µM |  | > 100 µM |  | 34.4 µM |  | > 100 µM |  | > 100 µM |  | > 100 µM |  | > 100 µM |  | > 100 µM |  | > 100 µM |  | 30.1 µM
8 | Cc1sc2ncnc(Sc3nc4ccccc4[nH]3)c2c1C | 24.4 µM | > 100 µM | 27.2 µM | > 100 µM | 32.5 µM | > 100 µM | 29.5 µM | > 100 µM | 28.2 µM | > 100 µM | 18.8 µM | 43.2 µM | 13.6 µM | 67 µM | 38.4 µM | > 100 µM | 23.4 µM | 74.7 µM | 24 µM | > 100 µM
9 | Cn1cnc2c(F)c(Nc3ccc(Br)cc3Cl)c(C(=O)NOCCO)cc21 | 9.92 µM and 29 µM | > 100 µM | > 10 µM and 23.9 µM | > 100 µM | > 10 µM and 47.6 µM | > 100 µM | > 100 µM | > 100 µM | > 10 µM and 40.5 µM | > 100 µM | > 8.16 µM and 30.1 µM | > 100 µM | > 100 µM | > 100 µM | > 10 µM and 22.4 µM | > 100 µM | 0.0269 µM and 0.0268 µM | > 2.81 µM and 2.52 µM | 0.648 µM and 1.07 µM | > 100 µM
10 | CNC(=O)c1cc(Oc2ccc3nc(NC(=O)Nc4ccc(Cl)c(Cl)c4)sc3c2)ccn1 | 2.1 µM | 5.56 µM | 2.28 µM | 4.58 µM | 3.92 µM | > 100 µM | 2.3 µM | 5.09 µM | 3.71 µM | > 100 µM | 1.83 µM | 3.46 µM | 2.65 µM | > 100 µM | 2.17 µM | 4.69 µM | 1.74 µM | 3.56 µM | 1.88 µM | 4.35 µM
11 | C=C1C(=O)O[C@H]2[C@H]1CC/C(COC(=O)NCCc1ccc(OC)cc1)=C\CC[C@@]1(C)O[C@@H]21 | 1.72 µM | 3.55 µM | 4.11 µM | 16.4 µM |  |  | 10 µM | 32.6 µM | 1.74 µM | 4.01 µM | 11.1 µM | 23.5 µM | 1.89 µM | 4.79 µM | 1.79 µM | 4.21 µM | 1.99 µM | 4.39 µM | 1.34 µM | 2.84 µM
12 | CCCCCCC(C)CC(CCCCCC)NCCOC(=O)c1ccc([N+](=O)[O-])cc1 (stereo unspecified) |  | 30.5 µM and 28.1 µM |  | 29.4 µM and 28.6 µM |  | 25.2 µM and 23.8 µM |  | 58.8 µM and 32.1 µM |  | 33.1 µM and 26.7 µM |  | 29.2 µM and 25.2 µM |  | 28.3 µM and 21 µM |  | 30.1 µM and 27 µM |  | 27 µM |  | 28.1 µM and 24.1 µM
13 | CCCCCCCCCCCCCCCCC(C(=O)O)C(O)(CC(=O)O)C(=O)O (stereo unspecified) |  | > 100 µM |  | 47.3 µM |  | 53.6 µM |  | > 100 µM |  | > 100 µM |  | 33.1 µM |  | > 100 µM |  | 89.3 µM |  | 59.1 µM |  | 36.3 µM
